Results published in the NIST ThermoML archive (doi:10.1016/j.jct.2014.05.016).

Experiment: xn = mol fraction of the nth substance listed
Details: 100 kPa, Liquid; for viscosity: Concentric cylinders viscometry; for mass density: Vibrating tube method

CCCC[n+]1ccccc1.F[B-](F)(F)F [1-butylpyridinium tetrafluoroborate] + CCCCn1cc[n+](C)c1.F[B-](F)(F)F
Details | mass density [kg/m3] | viscosity [mPa·s]
293.15 K, x2 = 0 | 1216.6 | 228.9
293.15 K, x2 = 0.1007 | 1215.4 | –
293.15 K, x2 = 0.1009 | – | 219.4
293.15 K, x2 = 0.2004 | 1214.3 | –
293.15 K, x2 = 0.2005 | – | 209.3
293.15 K, x2 = 0.3001 | 1213.1 | –
293.15 K, x2 = 0.3003 | – | 199.5
293.15 K, x2 = 0.4001 | – | 190
293.15 K, x2 = 0.4004 | 1211.7 | –
293.15 K, x2 = 0.4999 | – | 180.9
293.15 K, x2 = 0.5009 | 1210.6 | –
293.15 K, x2 = 0.6004 | 1209.4 | –
293.15 K, x2 = 0.6007 | – | 172.5
293.15 K, x2 = 0.7004 | – | 163.9
293.15 K, x2 = 0.7013 | 1208.1 | –
293.15 K, x2 = 0.8001 | – | 156.9
293.15 K, x2 = 0.8007 | 1206.7 | –
293.15 K, x2 = 0.8987 | 1205.5 | –
293.15 K, x2 = 0.8998 | – | 148.7
298.15 K, x2 = 0 | 1213.1 | 166.9
298.15 K, x2 = 0.1007 | 1211.9 | –
298.15 K, x2 = 0.1009 | – | 160.8
298.15 K, x2 = 0.2004 | 1210.8 | –
298.15 K, x2 = 0.2005 | – | 153.7
298.15 K, x2 = 0.3001 | 1209.6 | –
298.15 K, x2 = 0.3003 | – | 147.1
298.15 K, x2 = 0.4001 | – | 140.8
298.15 K, x2 = 0.4004 | 1208.2 | –
298.15 K, x2 = 0.4999 | – | 134.6
298.15 K, x2 = 0.5009 | 1207.1 | –
298.15 K, x2 = 0.6004 | 1205.8 | –
298.15 K, x2 = 0.6007 | – | 128.8
298.15 K, x2 = 0.7004 | – | 123.1
298.15 K, x2 = 0.7013 | 1204.5 | –
298.15 K, x2 = 0.8001 | – | 117.9
298.15 K, x2 = 0.8007 | 1203.1 | –
298.15 K, x2 = 0.8987 | 1202 | –
298.15 K, x2 = 0.8998 | – | 112.7
303.15 K, x2 = 0 | 1209.6 | 124.5
303.15 K, x2 = 0.1007 | 1208.4 | –
303.15 K, x2 = 0.1009 | – | 120.4
303.15 K, x2 = 0.2004 | 1207.3 | –
303.15 K, x2 = 0.2005 | – | 115.6
303.15 K, x2 = 0.3001 | 1206.1 | –
303.15 K, x2 = 0.3003 | – | 111.1
303.15 K, x2 = 0.4001 | – | 106.9
303.15 K, x2 = 0.4004 | 1204.7 | –
303.15 K, x2 = 0.4999 | – | 102.5
303.15 K, x2 = 0.5009 | 1203.6 | –
303.15 K, x2 = 0.6004 | 1202.3 | –
303.15 K, x2 = 0.6007 | – | 98.69
303.15 K, x2 = 0.7004 | – | 94.64
303.15 K, x2 = 0.7013 | 1201 | –
303.15 K, x2 = 0.8001 | – | 90.99
303.15 K, x2 = 0.8007 | 1199.6 | –
303.15 K, x2 = 0.8987 | 1198.4 | –
303.15 K, x2 = 0.8998 | – | 87.26
308.15 K, x2 = 0 | 1206.2 | 94.97
308.15 K, x2 = 0.1007 | 1204.9 | –
308.15 K, x2 = 0.1009 | – | 92.11
308.15 K, x2 = 0.2004 | 1203.8 | –
308.15 K, x2 = 0.2005 | – | 88.99
308.15 K, x2 = 0.3001 | 1202.6 | –
308.15 K, x2 = 0.3003 | – | 85.73
308.15 K, x2 = 0.4001 | – | 82.59
308.15 K, x2 = 0.4004 | 1201.2 | –
308.15 K, x2 = 0.4999 | – | 79.65
308.15 K, x2 = 0.5009 | 1200.1 | –
308.15 K, x2 = 0.6004 | 1198.8 | –
308.15 K, x2 = 0.6007 | – | 76.79
308.15 K, x2 = 0.7004 | – | 73.92
308.15 K, x2 = 0.7013 | 1197.5 | –
308.15 K, x2 = 0.8001 | – | 71.3
308.15 K, x2 = 0.8007 | 1196.1 | –
308.15 K, x2 = 0.8987 | 1194.9 | –
308.15 K, x2 = 0.8998 | – | 68.74
313.15 K, x2 = 0 | 1202.8 | 73.94
313.15 K, x2 = 0.1007 | 1201.5 | –
313.15 K, x2 = 0.1009 | – | 71.92
313.15 K, x2 = 0.2004 | 1200.4 | –
313.15 K, x2 = 0.2005 | – | 69.59
313.15 K, x2 = 0.3001 | 1199.2 | –
313.15 K, x2 = 0.3003 | – | 67.3
313.15 K, x2 = 0.4001 | – | 65.09
313.15 K, x2 = 0.4004 | 1197.8 | –
313.15 K, x2 = 0.4999 | – | 62.92
313.15 K, x2 = 0.5009 | 1196.6 | –
313.15 K, x2 = 0.6004 | 1195.3 | –
313.15 K, x2 = 0.6007 | – | 61
313.15 K, x2 = 0.7004 | – | 58.91
313.15 K, x2 = 0.7013 | 1193.9 | –
313.15 K, x2 = 0.8001 | – | 56.91
313.15 K, x2 = 0.8007 | 1192.6 | –
313.15 K, x2 = 0.8987 | 1191.4 | –
313.15 K, x2 = 0.8998 | – | 54.99
318.15 K, x2 = 0 | – | 58.64
318.15 K, x2 = 0.1009 | – | 57.19
318.15 K, x2 = 0.2005 | – | 55.49
318.15 K, x2 = 0.3003 | – | 53.81
318.15 K, x2 = 0.4001 | – | 52.19
318.15 K, x2 = 0.4999 | – | 50.59
318.15 K, x2 = 0.6007 | – | 49.12
318.15 K, x2 = 0.7004 | – | 47.51
318.15 K, x2 = 0.8001 | – | 46.14
318.15 K, x2 = 0.8998 | – | 44.72
